System: healthy adults
Experiment: Phase 1 ECG (QTcF), vital signs and clinical laboratory safety
Format: in vivo, human
Method: Safety and tolerability. Safety was assessed by the incidence of adverse events (AEs) and by incidence of reduced LVEF. Treatment-emergent AEs (TEAE) were defined as AEs that began or increased after study drug administration. All AEs were coded using the Medical Dictionary for Regulatory Activities version 21.1 and graded using the National Cancer Institute Common Terminology Criteria for AEs (version 4.03) 5-point severity scale. Each AE was judged as either related or unrelated to the study drug by the treating investigator. Clinical laboratory tests were obtained at regular intervals in all cohorts.
For safety monitoring, participants in all cohorts had periodic echocardiograms, which were assessed by a cardiologist. In the SAD and MAD cohorts, echocardiograms were also reviewed by an echocardiography core laboratory for PD assessments, as described below. In addition, participants in all cohorts were monitored with continuous 12-lead ECG recording using Holter monitors. For safety monitoring, a single 12-lead ECG was extracted at screening, pre-dose, and periodically throughout follow-up, and interpreted by the investigator. In the SAD, MAD, and CYP2D6-PM cohorts, cardiodynamic ECGs (triplicate 10-second, 12-lead ECG recordings) were obtained prior to the corresponding PK blood and ECG intervals quantitated by qualified readers.

In the case of CCc1nc(-c2ccc3c(c2)CC[C@H]3NC(=O)c2cnn(C)c2)no1 [aficamten, (R)—N-(5-(5-ethyl-1,2,4-oxadiazol-3-yl)-2,3-dihydro-1H-inden-1-yl)-1-methyl-1H-pyrazole-4-carboxamide], the “Serum chemistry, hematology, urinalysis findings” value (all Phase 1 cohorts) was “No clinically significant serum chemistry, hematology, or urinalysis findings”, the “Increases in QTcF interval” value (all cohorts (exception: 1 placebo participant)) was ≤ 30 ms and the “QTcF at baseline or any assessment during the dosing interval” value (all cohorts, exception of 2 individuals with baseline QTcF ≥440 ms) was ≤ 450 ms. For the same compound, the “QT effect in cardiodynamic assessments” value (single or multiple doses) was “no evidence of a positive QT effect”.

Reference: patent US20250177357A1, “METHODS FOR TREATING HYPERTROPHIC CARDIOMYOPATHY” (priority 2021, published 2025)
